From patent publication US11174250B2, “Substituted carboxamides as inhibitors of WDR5 protein-protein binding” (PROPELLON THERAPEUTICS INC., priority 2016, dated 2021)
Like-named read-outs stand apart in the source and are kept apart here.

Target: WDR5 protein (Homo sapiens (Human), UniProt P61964)
Experiment: Surface Plasmon Resonance (SPR) assay
Format: binding
Settings: for residence time: τ=1/koff, read-out: Residence Time (t, min)
[1] = SPR, Table 1, read-out: WDR5 binding affinity (KD)
[2] = SPR, Table 2, read-out: WDR5 binding affinity SPR (KD)

Protocol: Exemplary compounds of the application were dissolved in 100% DMSO at 10 mM, assayed fresh, and then stored at −20° C. for repeat studies and other experiments. Full length WDR5 with an N-terminal His tag and C-terminal AviTag (Avidity Inc.) was expressed in E. coli with coexpression of BirA to biotin label the protein in vivo. Purification was via Ni-NTA. The purified WDR5 protein has a molecular weight of 41976 Da.
SPR studies were performed using a Biacore™ T200 instrument (GE Health Sciences Inc.). Biotinylated WDR5 protein (approximately 3000RU) was stably captured to streptavidin coupled SA chips according to the manufacture's protocol (GE Health Sciences Inc.). The running buffer used was HBS-EP (20 mM Hepes pH 7.4, 150 mM NaCl, 3 mM EDTA, 0.05% P-20) plus 5% DMSO with a flow rate of 40p1/min. For SPR analysis, 5 different concentrations of each exemplary compound of the application were sprayed into 96 or 384 well plates using an HP D300 digital dispenser. […] Curve fitting and KD calculations were performed with the Biacore T200 Evaluation software (GE Health Sciences Inc).

Row | Kd [1] | Kd [2] | residence time (SPR) | SMILES | Kd
1 | 0.01 µM | 0.0103 µM | 3.24 min | C[C@@H]1CN(c2ccc(-c3ccc(F)c(CNC4CCCCC4)c3F)cc2NC(=O)c2c[nH]c(=O)cc2C(F)(F)F)C[C@H](C)N1C [Example 83, N-(3′-((cyclohexylamino)methyl)-2′,4′-difluoro-4-((3S,5R)-3,4,5-trimethylpiperazin-1-yl)-[1,1′-biphenyl]-3-yl)-6-oxo-4-(trifluoromethyl)-1,6-dihydropyridine-3-carboxamide] | –
2 | 0.015 µM | 0.0148 µM | 0.78 min | CN1CCN(c2ncc(-c3cc(CNC4CCCCC4)ccc3F)cc2NC(=O)c2c[nH]c(=O)cc2C(F)(F)F)CC1 [Example 85, N-(5-(5-((cyclohexylamino)methyl)-2-fluorophenyl)-2-(4-methylpiperazin-1-yl)pyridin-3-yl)-6-oxo-4-(trifluoromethyl)-1,6-dihydropyridine-3-carboxamide] | –
3 | 0.035 µM | 0.0345 µM | – | CN1CCN(c2ccc(-c3cc(CN4CCOCC4)ccc3Cl)cc2NC(=O)c2c[nH]c(=O)cc2C(F)(F)F)CC1 [Example 86, N-(2′-chloro-4-(4-methylpiperazin-1-yl)-5′-(morpholinomethyl)-[1,1′-biphenyl]-3-yl)-6-oxo-4-(trifluoromethyl)-1,6-dihydropyridine-3-carboxamide] | –
4 | 0.018 µM | 0.018 µM | 1.71 min | CN1CCCN(c2ccc(-c3cc(CN4CCOCC4)ccc3F)cc2NC(=O)c2c[nH]c(=O)cc2C(F)(F)F)CC1 [Example 88, N-(2′-fluoro-4-(4-methyl-1,4-diazepan-1-yl)-5′-(morpholinomethyl)-[1,1′-biphenyl]-3-yl)-6-oxo-4-(trifluoromethyl)-1,6-dihydropyridine-3-carboxamide] | –
5 | 0.235 µM | 0.235 µM | 0.07 min | CN1CCCN(c2ccc(-c3cc(CN4CCOCC4)ccc3F)cc2NC(=O)c2cn(C)c(=O)cc2C(F)(F)F)CC1 [Example 89, N-(2′-fluoro-4-(4-methyl-1,4-diazepan-1-yl)-5′-(morpholinomethyl)-[1,1′-biphenyl]-3-yl)-1-methyl-6-oxo-4-(trifluoromethyl)-1,6-dihydropyridine-3-carboxamide] | –
6 | 0.316 µM | 0.316 µM | – | Cc1cc(C(=O)Nc2cc(-c3cc(CN4CCOCC4)ccc3F)ccc2N2CCC(N(C)C)C2)cc(C)c1F (stereo not drawn) [Example 91, N-(4-(3-(dimethylamino)pyrrolidin-1-yl)-2′-fluoro-5′-(morpholinomethyl)-[1,1′-biphenyl]-3-yl)-4-fluoro-3,5-dimethylbenzamide] | –
7 | 0.394 µM | 0.394 µM | – | Cc1cc(C(=O)Nc2cc(-c3cc(CN4CCOCC4)ccc3F)ccc2N2CCCN(C)CC2)cc(C)c1F [Example 92, 4-fluoro-N-(2′-fluoro-4-(4-methyl-1,4-diazepan-1-yl)-5′-(morpholinomethyl)-[1,1′-biphenyl]-3-yl)-3,5-dimethylbenzamide] | –
8 | > 0.2 µM | > 0.2 µM | – | Cc1cc(C(=O)Nc2cc(-c3cc(CN4CCOCC4)ccc3F)ccc2N2CC3CN(C)CC3C2)cc(C)c1F (stereo not drawn) [Example 94, 4-fluoro-N-(2′-fluoro-4-(5-methylhexahydropyrrolo[3,4-c]pyrrol-2(1H)-yl)-5′-(morpholinomethyl)-[1,1′-biphenyl]-3-yl)-3,5-dimethylbenzamide] | –
9 | > 0.2 µM | > 0.2 µM | – | Cc1cc(C(=O)Nc2cc(-c3cc(CN4CCOCC4)ccc3F)ccc2N2CCN(CC(F)(F)F)CC2)cc(C)c1F [Example 95, 4-fluoro-N-(2′-fluoro-5′-(morpholinomethyl)-4-(4-(2,2,2-trifluoroethyl)piperazin-1-yl)-[,1′-biphenyl]-3-yl)-3,5-dimethylbenzamide] | –
10 | > 0.2 µM | > 0.2 µM | – | O=C(Nc1cc(-c2cc(CN3CCOCC3)ccc2F)ccc1N1CCN(CC(F)(F)F)CC1)c1c[nH]c(=O)cc1C(F)(F)F [Example 97, N-(2′-fluoro-5′-(morpholinomethyl)-4-(4-(2,2,2-trifluoroethyl)piperazin-1-yl)-[,1′-biphenyl]-3-yl)-6-oxo-4-(trifluoromethyl)-1,6-dihydropyridine-3-carboxamide] | –
11 | 5.93 µM | 5.93 µM | – | CN1CC2CN(c3ccc(-c4cc(CN5CCOCC5)ccc4F)cc3NC(=O)c3c[nH]c(=O)cc3C(F)(F)F)CC2C1 (stereo not drawn) [Example 100, N-(2′-fluoro-4-(5-methylhexahydropyrrolo[3,4-c]pyrrol-2(1H)-yl)-5′-(morpholinomethyl)-[1,1′-biphenyl]-3-yl)-6-oxo-4-(trifluoromethyl)-1,6-dihydropyridine-3-carboxamide] | –
12 | 2.27 µM | 2.27 µM | – | CN(C)C1CCN(c2ccc(-c3cc(CN4CCOCC4)ccc3F)cc2NC(=O)c2cn(C)c(=O)cc2C(F)(F)F)C1 (stereo not drawn) [Example 101, N-(4-(3-(dimethylamino)pyrrolidin-1-yl)-2′-fluoro-5′-(morpholinomethyl)-[1,1′-biphenyl]-3-yl)-1-methyl-6-oxo-4-(trifluoromethyl)-1,6-dihydropyridine-3-carboxamide] | –
13 | > 0.2 µM | > 0.2 µM | – | CN1CCN(c2ccc(-c3cc(CN4CCOCC4)ccc3F)cc2NC(=O)c2cc(F)cc3[nH]cnc23)CC1 [Example 102, 6-fluoro-N-(2′-fluoro-4-(4-methylpiperazin-1-yl)-5′-(morpholinomethyl)-[1,1′-biphenyl]-3-yl)-1H-benzo[d]imidazole-4-carboxamide] | –
14 | > 0.2 µM | > 0.2 µM | – | CN1CCN(c2ccc(-c3cc(CN4CCOCC4)ccc3F)cc2NC(=O)c2nc3ccccc3[nH]2)CC1 [Example 103, N-(2′-fluoro-4-(4-methylpiperazin-1-yl)-5′-(morpholinomethyl)-[1,1′-biphenyl]-3-yl)-1H-benzo[d]imidazole-2-carboxamide] | –
15 | 4 µM | 4 µM | – | C[C@H]1CN(C)CCN1c1ccc(-c2cc(CN3CCOCC3)ccc2F)cc1NC(=O)c1c[nH]c(=O)cc1C(F)(F)F [Example 104, (S)—N-(4-(2,4-dimethylpiperazin-1-yl)-2′-fluoro-5′-(morpholinomethyl)-[1,1′-biphenyl]-3-yl)-6-oxo-4-(trifluoromethyl)-1,6-dihydropyridine-3-carboxamide] | –
16 | 1.95 µM | 1.95 µM | – | CN1CCN(c2ccc(-c3cc(CN4CCOCC4)ccc3F)cc2NC(=O)c2ccc(=O)[nH]c2)CC1 [Example 105, N-(2′-fluoro-4-(4-methylpiperazin-1-yl)-5′-(morpholinomethyl)-[1,1′-biphenyl]-3-yl)-6-oxo-1,6-dihydropyridine-3-carboxamide] | –
17 | 0.0083 µM | 0.829 µM | 3.2 min | CC(=O)Nc1cc(C)c(C(=O)Nc2cc(-c3cc(CN4CCOCC4)ccc3F)ccc2N2CCN(C)CC2)cn1 [Example 106, 6-acetamido-N-(2′-fluoro-4-(4-methylpiperazin-1-yl)-5′-(morpholinomethyl)-[1,1′-biphenyl]-3-yl)-4-methylnicotinamide] | –
18 | > 0.2 µM | > 0.2 µM | – | COc1cc(C(F)(F)F)c(C(=O)Nc2cc(-c3cc(CN4CCN(CC5CC5)CC4)ccc3F)ccc2N2CCN(C)CC2)cn1 [Example 107, N-(5′-((4-(cyclopropylmethyl)piperazin-1-yl)methyl)-2′-fluoro-4-(4-methylpiperazin-1-yl)-[1,1′-biphenyl]-3-yl)-6-methoxy-4-(trifluoromethyl)nicotinamide] | –
19 | > 0.2 µM | > 0.2 µM | – | CNc1cc(C(F)(F)F)c(C(=O)Nc2cc(-c3cc(CN4CCOCC4)ccc3F)ccc2N2CCN(C)CC2)cn1 [Example 108, N-(2′-fluoro-4-(4-methylpiperazin-1-yl)-5′-(morpholinomethyl)-[1,1′-biphenyl]-3-yl)-6-(methylamino)-4-(trifluoromethyl)nicotinamide] | –
20 | > 0.2 µM | > 0.2 µM | – | CN1CCN(c2ccc(-c3cc(CN4CCOCC4)ccc3F)cc2NC(=O)c2cnc(N)cc2C(F)(F)F)CC1 [Example 109, 6-amino-N-(2′-fluoro-4-(4-methylpiperazin-1-yl)-5′-(morpholinomethyl)-[1,1′-biphenyl]-3-yl)-4-(trifluoromethyl)nicotinamide] | –
21 | 0.023 µM | 0.023 µM | 1.3 min | C[C@@H]1CN(c2ccc(-c3ccc(F)c(CN(C)C4COC4)c3F)cc2NC(=O)c2c[nH]c(=O)cc2C(F)(F)F)C[C@H](C)N1C [Example 112, N-(2′,4′-difluoro-3′-((methyl(oxetan-3-yl)amino)methyl)-4-((3S,5R)-3,4,5-trimethylpiperazin-1-yl)-[1,1′-biphenyl]-3-yl)-6-oxo-4-(trifluoromethyl)-1,6-dihydropyridine-3-carboxamide] | –
22 | 0.055 µM | 0.055 µM | 1.5 min | C[C@@H]1CN(c2ccc(-c3c(F)cc(CNC4CCCCC4)cc3F)cc2NC(=O)c2c[nH]c(=O)cc2C(F)(F)F)C[C@H](C)N1C [Example 115, N-(4′-((cyclohexylamino)methyl)-2′,6′-difluoro-4-((3S,5R)-3,4,5-trimethylpiperazin-1-yl)-[1,1′-biphenyl]-3-yl)-6-oxo-4-(trifluoromethyl)-1,6-dihydropyridine-3-carboxamide] | –
23 | 0.0017 µM | 0.0016 µM | 7.9 min | C[C@@H]1CN(c2ccc(-c3ccc(C(N)=O)cc3F)cc2NC(=O)c2c[nH]c(=O)cc2C(F)(F)F)C[C@H](C)N1C [Example 117, N-(4′-carbamoyl-2′-fluoro-4-((3S,5R)-3,4,5-trimethylpiperazin-1-yl)-[1,1′-biphenyl]-3-yl)-6-oxo-4-(trifluoromethyl)-1,6-dihydropyridine-3-carboxamide] | –

Row | SMILES | Kd [1] | Kd [2] | residence time (SPR) | Kd
24 | C[C@@H]1CN(c2ccc(-c3ccc(N4CCOCC4)cc3F)cc2NC(=O)c2c[nH]c(=O)cc2C(F)(F)F)C[C@H](C)N1C [Example 118, N-(2′-fluoro-4′-morpholino-4-((3S,5R)-3,4,5-trimethylpiperazin-1-yl)-[1,1′-biphenyl]-3-yl)-6-oxo-4-(trifluoromethyl)-1,6-dihydropyridine-3-carboxamide] | – | 0.006 µM | 7.2 min | 0.0056 µM
